The source of these data is patent US20120077732A1, “CYCLIC PEPTIDES AND USES THEREOF” (SYDNEY WEST AREA HEALTH SERVICE, priority 2008, published 2012).

Assay [1] deals with 2B4.11 cells. Kind of assay: T-cell activation with H57-597 antibody (TCRβ chain crosslinking), IL-2 production. It counts as cell-based. The settings on record: H57-597 0.5 μg/mL with LK cells; 50 μM; relative to DMSO control; ±SD. As for the experimental part: To analyse the mode of action of C1, T-cells were activated using 2C11-145 and H57-597 antibodies. The H57-597 antibody is directed against the TCRβ chain, and when administered at sub-optimal doses in conjunction with accessory cells (LK35.2), is capable of activating T cells. […] C1 was added to give a final reaction volume of 250 μL at 50 μM and 0.5% DMSO.

Assay [2] deals with 2B4.11 cells. The experiment in a line: T-cell activation with 2C11-145 antibody (CD3 crosslinking), IL-2 production. It counts as cell-based. The following applies: CD3 crosslinking with 2C11-145; 50 μM; relative to DMSO control; ±SD. As for the experimental part: To analyse the mode of action of C1, T-cells were activated using 2C11-145 and H57-597 antibodies. The H57-597 antibody is directed against the TCRβ chain, and when administered at sub-optimal doses in conjunction with accessory cells (LK35.2), is capable of activating T cells. […] C1 was added to give a final reaction volume of 250 μL at 50 μM and 0.5% DMSO. […] T cells were also activated using the 2C11-145 antibody to crosslink the CD3 chains of the TCR, thereby bypassing the antigen recognition sub-units of the TCRα/β.

Assay [3] can be described thus: Surface plasmon resonance binding to DMPG liposomes. The following applies: SPR, L1 sensor chip, 50 μM, 25° C. As for the experimental part:
Model membranes composed of zwitterionic and anionic phospholipids were prepared as previously described (Bender et al., 2004). Briefly, DMPC and DMPG were dissolved in dry chloroform and chloroform/methanol (2:1) respectively to give 10 mg/ml solutions. […] The solution was sonicated in an ultrasonic bath for 20 min. Eight cycles of freeze/thawing was followed by extrusion through polycarbonate filters, first 100 nm (21 times) then 50 nm pore diameter (21 times), using a Lipofast apparatus (Avestin, Ottawa, Canada) and SUVs were used immediately. SPR was carried out on a BIAcore 2000 instrument using Pioneer Sensor Chip L1 and HEPES (HBS-N, Biacore, Upssala, Sweden) as running buffer. The chip surface was cleaned with 40 mM octyl glycoside (30 μl, 10 μl/min) followed liposomes (SUV) (100 μl, 5 μl/min). 10 mM NaOH (40 μl, 10 μl/min) removed any multilamellar vesicles from the surface before injecting the lipopeptide solutions (100 μl, 5 μl/min). The dissociation stage was 1200 sec. […] All SPR experiments were run at 25° C. and all analyses were performed using the BIAevaluation software (Biacore, Uppsala, Sweden). Lipopeptide binding was expressed as the difference in signal between points before sample injection and after dissociation.

The next assay has as its system S. pneumoniae. Kind of assay: Standard disk susceptibility testing (NCCLS), S. pneumoniae. It counts as cell-based. As for the experimental part: The synthetic C1 peptide and its analogues were tested using Standard disk susceptibility testing by National Committee for […] Laboratory Standards (NCCLS) against, S. aureus, E. coli and S. pneumoniae. […]
In a further assay the test system is allergic mice (OVA/OVA). Kind of assay: Allergic airways disease (OVA) model: airways hyperreactivity to methacholine. It counts as in vivo. Also on record: key to Airway Resistance / Airway Compliance: nc: no change; ↑: increase; ↓: decrease.
The mark [4] stands for this setting: 200 μg s.c. during challenge, allergic mice.
Where [5] appears, read: 200 μg/100 μl s.c. during OVA challenge, compared to OVA/OVA alone.

With `CC(C)C[C@@H]1NC(=O)[C@@H](CC(C)C)NC(=O)[C@H](CCCNC(=N)N)NC(=O)[C@@H](CC(C)C)NC(=O)CNC(=O)[C@@H](C(C)C)NC(=O)[C@H](CCCCN)NC(=O)[C@@H](CC(C)C)NC(=O)[C@H](CC(C)C)NC(=O)[C@@H](CC(C)C)NC1=O` [C1, LDRLDLLDLLDKVDG], the IL-2 production in the assay on 2B4.11 cells [1] stood at 54.02%+/−9.32. Moreover, in the assay with 2B4.11 cells [2], the “% IL-2 production” value amounted to 50.00%+/−15.79. Further, in assay [3], the “binding to DMPG (anionic) liposomes” value is “bound much stronger”. Moreover, the “antimicrobial activity, S. pneumoniae” value with S. pneumoniae (peptide 10 μg/ml) is given as “−ve”. Moreover, the “antimicrobial activity, S. pneumoniae” value in the assay on S. pneumoniae (peptide 100 μg/ml) was “−ve”. Moreover, the “antimicrobial activity, S. pneumoniae” value with S. pneumoniae (peptide 1000 μg/ml) was “−ve”. Besides, in the assay with allergic mice (OVA/OVA) (setting [4]), the “airway resistance in response to methacholine challenge” value is on record as “no significant effect” and the “dynamic compliance in response to methacholine challenge” value was “no significant effect”. Besides, in the assay on allergic mice (OVA/OVA) (setting [5]), the “Airway Compliance” value is “↑” and the “Airway Resistance” value is on record as “nc”.
